{"source": "patent KR20210050472A", "about": "“에독사반염 및 이를 포함하는 약제학적 조성물” (priority 2019, dated 2021)", "key": {"[1]": {"test": "Heat stability test (Test Example 1), crystal form retention at 40±2℃, 75±5% RH", "format": "physicochemical", "conditions": "for stability of crystal form: 40℃/75% RH"}, "[2]": {"test": "Stability test in pH solutions (Test Example 2), related substances by HPLC", "format": "physicochemical", "conditions": "for degraded: read-out: amount of related substances generated"}, "[3]": {"conditions": "40℃, 75% RH, from week 8 of the stability test"}}, "note": "Where two headings read alike, the source gives them in different places."}
{"smiles": "CN1CCc2nc(C(=O)N[C@@H]3C[C@@H](C(=O)N(C)C)CC[C@@H]3NC(=O)C(=O)Nc3ccc(Cl)cn3)sc2C1", "note": "[말산염 결정형, 에독사반 말산염 결정형, reference compound]", "values": [{"measurement": "change in appearance and powder X-ray diffraction values", "setting": "[1]; 40℃, 75% RH, week 24", "result": "성상 변화 및 분말 X선 회절 값이 변화"}, {"measurement": "stability of crystal form", "setting": "[1]; 8 weeks, 말산염", "result": "결정형 유지"}, {"measurement": "stability of crystal form", "setting": "[1]; 24 weeks, 말산염", "result": "결정형 변화"}]}
{"smiles": "CN1CCc2nc(C(=O)N[C@@H]3C[C@@H](C(=O)N(C)C)CC[C@@H]3NC(=O)C(=O)Nc3ccc(Cl)cn3)sc2C1", "note": "[벤젠술폰산염 결정형 Ⅰ형, 에독사반 벤젠술폰산염 결정형 Ⅰ형]", "values": [{"measurement": "stability of crystal form", "setting": "[1]; 8 weeks, 벤젠술폰산염", "result": "결정형 유지"}, {"measurement": "stability of crystal form", "setting": "[1]; 16 weeks", "result": "결정형 유지"}, {"measurement": "stability of crystal form", "setting": "[1]; 24 weeks, 벤젠술폰산염", "result": "결정형 유지"}]}
{"smiles": "CN1CCc2nc(C(=O)N[C@@H]3C[C@@H](C(=O)N(C)C)CC[C@@H]3NC(=O)C(=O)Nc3ccc(Cl)cn3)sc2C1", "note": "[벤젠술폰산염 결정형 Ⅱ형, 에독사반 벤젠술폰산염 결정형 Ⅱ형, reference compound]", "values": [{"measurement": "change of crystal form", "setting": "[1]; [3]", "result": "일부가 결정형 Ⅰ으로 변화"}, {"measurement": "change of endothermic point by differential scanning calorimetry", "setting": "[1]; [3]", "result": "결정형 Ⅰ형의 흡열점이 관찰"}, {"measurement": "stability of crystal form", "setting": "[1]; 8 weeks, 벤젠술폰산염", "result": "일부 결정형 Ⅰ형으로 변화"}]}
{"smiles": "CN1CCc2nc(C(=O)N[C@@H]3C[C@@H](C(=O)N(C)C)CC[C@@H]3NC(=O)C(=O)Nc3ccc(Cl)cn3)sc2C1", "note": "[에디실산염 수화물 결정형, 에독사반 에디실산염 수화물 결정형]", "values": [{"measurement": "change in crystal form and appearance", "setting": "[1]; 40℃, 75% RH, over 24 weeks", "result": "결정형의 변화 및 성상의 변화가 발생하지 않아"}, {"measurement": "stability of crystal form", "setting": "[1]; 8 weeks, 에디실산염 수화물", "result": "결정형 유지"}, {"measurement": "stability of crystal form", "setting": "[1]; 16 weeks", "result": "결정형 유지"}, {"measurement": "stability of crystal form", "setting": "[1]; 24 weeks, 에디실산염 수화물", "result": "결정형 유지"}, {"measurement": "degraded", "setting": "[2]; distilled water (DW)", "result": 0.18, "unit": "%"}, {"measurement": "degraded", "setting": "[2]; pH 1.2", "result": 19.3, "unit": "%"}, {"measurement": "degraded", "setting": "[2]; pH 7.8", "result": 11.4, "unit": "%"}, {"measurement": "total related substances generated, reduction versus tosylate hydrate", "setting": "[2]; pH 7.8 solution", "result": "~4.5", "unit": "%"}, {"measurement": "total related substances generated, compared with tosylate hydrate", "setting": "[2]; solutions of DW, pH 1.2 and pH 7.8", "result": "총유연물질이 적게 발생"}]}
